Laboratory results as given in patent publication US20140058103A1, “Inhibitors of PI3K-Delta and Methods of Their Use and Manufacture” (Exelixis, Inc., priority 2010, published 2014).

Biological target: PI3K delta (Homo sapiens, UniProt O00329)
Assay: Luciferase-coupled chemiluminescence kinase assay (ATP consumption, KinaseGlo)
Type: biochemical
Outline: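 ATP consumption measured by KinaseGlo luciferase chemiluminescence after a 2 h reaction at ambient temperature, with ATP at or below the kinase KM. Ten inhibitor concentrations per curve; IC50 from four-parameter nonlinear regression.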

Chain of PI3K delta (O00329 whole entry): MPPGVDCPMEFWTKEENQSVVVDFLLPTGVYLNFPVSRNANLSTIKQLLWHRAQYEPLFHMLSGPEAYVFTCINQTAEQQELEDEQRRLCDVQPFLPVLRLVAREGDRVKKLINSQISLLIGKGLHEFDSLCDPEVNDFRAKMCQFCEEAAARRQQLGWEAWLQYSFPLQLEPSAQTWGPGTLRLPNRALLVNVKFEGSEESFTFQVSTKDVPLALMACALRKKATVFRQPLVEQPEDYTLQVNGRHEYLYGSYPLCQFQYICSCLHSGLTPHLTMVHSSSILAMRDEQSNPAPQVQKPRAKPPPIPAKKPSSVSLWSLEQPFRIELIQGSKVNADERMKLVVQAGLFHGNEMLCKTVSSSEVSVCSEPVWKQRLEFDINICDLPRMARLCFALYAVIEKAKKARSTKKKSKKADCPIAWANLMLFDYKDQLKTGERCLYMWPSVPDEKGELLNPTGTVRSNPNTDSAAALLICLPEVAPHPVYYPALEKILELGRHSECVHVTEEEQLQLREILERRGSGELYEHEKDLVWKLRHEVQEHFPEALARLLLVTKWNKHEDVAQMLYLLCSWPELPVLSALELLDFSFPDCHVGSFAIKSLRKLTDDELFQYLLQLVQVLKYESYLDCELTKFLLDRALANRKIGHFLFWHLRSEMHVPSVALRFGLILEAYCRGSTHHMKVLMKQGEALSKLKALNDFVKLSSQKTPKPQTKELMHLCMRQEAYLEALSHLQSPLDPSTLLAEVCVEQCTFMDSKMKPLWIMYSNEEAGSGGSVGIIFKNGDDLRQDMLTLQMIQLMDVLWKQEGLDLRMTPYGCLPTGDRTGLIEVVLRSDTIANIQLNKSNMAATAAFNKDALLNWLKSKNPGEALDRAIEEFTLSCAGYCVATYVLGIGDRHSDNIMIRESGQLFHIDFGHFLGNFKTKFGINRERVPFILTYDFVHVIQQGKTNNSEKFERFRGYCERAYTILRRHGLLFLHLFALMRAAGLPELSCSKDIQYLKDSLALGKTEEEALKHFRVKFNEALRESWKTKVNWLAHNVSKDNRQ
Chain of PI3K delta (P27986 whole entry partner): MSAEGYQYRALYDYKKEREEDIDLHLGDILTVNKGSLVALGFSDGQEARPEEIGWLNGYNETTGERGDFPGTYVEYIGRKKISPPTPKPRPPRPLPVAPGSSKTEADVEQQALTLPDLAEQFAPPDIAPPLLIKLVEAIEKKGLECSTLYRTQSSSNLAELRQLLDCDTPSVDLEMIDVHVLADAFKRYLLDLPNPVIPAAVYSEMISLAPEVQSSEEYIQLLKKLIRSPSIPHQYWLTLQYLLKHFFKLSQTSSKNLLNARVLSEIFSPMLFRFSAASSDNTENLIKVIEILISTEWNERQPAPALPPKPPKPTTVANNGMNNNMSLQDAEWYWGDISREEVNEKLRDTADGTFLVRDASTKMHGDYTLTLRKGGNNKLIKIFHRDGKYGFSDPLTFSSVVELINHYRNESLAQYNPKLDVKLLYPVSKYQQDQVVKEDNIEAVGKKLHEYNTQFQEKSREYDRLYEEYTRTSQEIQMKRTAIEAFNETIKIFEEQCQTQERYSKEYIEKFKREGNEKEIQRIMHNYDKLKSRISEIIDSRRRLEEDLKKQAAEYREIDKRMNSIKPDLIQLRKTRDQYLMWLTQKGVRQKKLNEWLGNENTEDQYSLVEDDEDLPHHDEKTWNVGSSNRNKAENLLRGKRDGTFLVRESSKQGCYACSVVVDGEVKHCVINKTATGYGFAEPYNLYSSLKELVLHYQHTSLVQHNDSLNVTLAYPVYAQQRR

SMILES | IC50
COC(=O)c1nc2c(N3CCC(n4c(=O)[nH]c5ccccc54)CC3)ncnc2n1C [Compound 78, Methyl 9-methyl-6-[4-(2-oxo-2,3-dihydro-1H-benzimidazol-1-yl)piperidin-1-yl]-9H-purine-8-carboxylate] | 500 to 1500 nM
CCn1c(-c2cnc(OC)nc2OC)nc2c(N3CCC(n4c(=O)[nH]c5ccccc54)CC3)ncnc21 [Compound 321, 1-(1-{8-[2,4-bis(methyloxy)pyrimidin-5-yl]-9-ethyl-9H-purin-6-yl}piperidin-4-yl)-1,3-dihydro-2H-benzimidazol-2-one] | 500 to 1500 nM
COc1ncc(-c2nc3c(N4CCC(n5c(=O)[nH]c6ccccc65)CC4)ncnc3n2C)c(OC)n1 [Compound 308, 1-(1-{8-[2,4-bis(methyloxy)pyrimidin-5-yl]-9-methyl-9H-purin-6-yl)piperidin-4-yl)-1,3-dihydro-2H-benzimidazol-2-one] | 50 to 250 nM
CC(NC(=O)c1nc2c(N3CCC(n4c(=O)[nH]c5ccccc54)CC3)ncnc2n1C)c1ccccc1 (stereo not drawn) [Compound 53, 9-methyl-6-[4-(2-oxo-2,3-dihydro-1H-benzimidazol-1-yl)piperidin-1-yl]-N-(1-phenylethyl)-9H-purine-8-carboxamide] | 500 to 1500 nM
Cn1c(-c2cocn2)nc2c(N3CCC(n4c(=O)[nH]c5ccccc54)CC3)ncnc21 [Compound 179, 1-{1-[9-methyl-8-(1,3-oxazol-4-yl)-9H-purin-6-yl]piperidin-4-yl}-1,3-dihydro-2H-benzimidazol-2-one] | 500 to 1500 nM
Cn1cc(-c2nc3c(N4CCC(C#N)(c5ccccc5)CC4)ncnc3n2C)cn1 [Compound 263, 1-[9-Methyl-8-(1-methyl-1H-pyrazol-4-yl)-9H-purin-6-yl]-4-phenylpiperidine-4-carbonitrile] | 50 to 250 nM
CCn1c(-c2cn[nH]c2)nc2c(N3CCC4(CC3)C(=O)Nc3ccccc34)ncnc21 [Compound 252, 1′-[9-ethyl-8-(1H-pyrazol-4-yl)-9H-purin-6-yl]spiro[indole-3,4′-piperidin]-2(1H)-one] | < 50 nM
CCn1cc(-c2nc3c(N4CCC(c5c[nH]c6ccccc56)CC4)ncnc3n2C)cn1 [Compound 366, 8-(1-ethyl-1H-pyrazol-4-yl)-6-[4-(1H-indol-3-yl)piperidin-1-yl]-9-methyl-9H-purine] | 250 to 500 nM
Cn1c(C(=O)NCc2cccs2)nc2c(N3CCC4(CC3)C(=O)Nc3ccccc34)ncnc21 [Compound 20, 9-methyl-6-(2-oxo-1,2-dihydro-1′H-spiro[indole-3,4′-piperidin]-1′-yl)-N-(2-thienylmethyl)-9H-purine-8-carboxamide] | 50 to 250 nM
Cn1c(C(=O)NC2CCC2)nc2c(N3CCC4(CC3)C(=O)Nc3ccccc34)ncnc21 [Compound 15, N-cyclobutyl-9-methyl-6-(2-oxo-1,2-dihydro-1′H-spiro[indole-3,4′-piperidin]-1′-yl)-9H-purine-8-carboxamide] | 50 to 250 nM
Cn1cc(-c2nc3c(N4CCC(n5c(=O)[nH]c6ccccc65)CC4)ncnc3n2C)cn1 [Compound 149, 1-{1-[9-Methyl-8-(1-methyl-1H-pyrazol-4-yl)-9H-purin-6-yl]piperidin-4-yl}-1,3-dihydro-2H-benzimidazol-2-one] | < 50 nM
Cn1c(C(=O)NCC2CC2)nc2c(N3CCC(n4ccc5ccccc54)CC3)ncnc21 [Compound 121, N-(cyclopropylmethyl)-6-[4-(1H-indol-1-yl)piperidin-1-yl]-9-methyl-9H-purine-8-carboxamide] | 500 to 1500 nM
CN(C)C1CN(C(=O)c2nc3c(N4CCC5(CC4)C(=O)NCC5c4ccccc4)ncnc3n2C)C1 (stereo not drawn) [Compound 10] | 500 to 1500 nM
CN(C)C(=O)c1nc2c(N3CCC4(CC3)C(=O)NCN4c3ccccc3)ncnc2n1C [Compound 7, N,N,9-Trimethyl-6-(4-oxo-1-phenyl-1,3,8-triazaspiro[4.5]dec-8-yl)-9H-purine-8-carboxamide] | 500 to 1500 nM

Other lines, results leading:

IC50 | SMILES
500 to 1500 nM | CCOC(=O)c1nc2c(N3CCC(n4c(=O)[nH]c5ccccc54)CC3)ncnc2n1C [Compound 80, Ethyl 9-methyl-6-[4-(2-oxo-2,3-dihydro-1H-benzimidazol-1-yl)piperidin-1-yl]-9H-purine-8-carboxylate]
50 to 250 nM | CCn1c(C(=O)NCCC(C)C)nc2c(N3CCC4(CC3)C(=O)Nc3ccccc34)ncnc21 [Compound 225, 9-ethyl-N-(3-methylbutyl)-6-(2-oxo-1,2-dihydro-1′H-spiro[indole-3,4′-piperidin]-1′-yl)-9H-purine-8-carboxamide]
< 50 nM | Cn1c(-c2cnc(N)nc2)nc2c(N3CCC(n4c(=O)[nH]c5ccccc54)CC3)ncnc21 [Compound 305, 1-{1-[8-(2-aminopyrimidin-5-yl)-9-methyl-9H-purin-6-yl]piperidin-4-yl}-1,3-dihydro-2H-benzimidazol-2-one]
50 to 250 nM | Cn1c(C(=O)NCC2CC2)nc2c(N3CC(n4c(=O)[nH]c5ccccc54)C3)ncnc21 [Compound 137, N-(cyclopropylmethyl)-9-methyl-6-[3-(2-oxo-2,3-dihydro-1H-benzimidazol-1-yl)azetidin-1-yl]-9H-purine-8-carboxamide]
< 50 nM | CN(C)c1ncc(-c2nc3c(N4CCC(n5c(=O)[nH]c6ccccc65)CC4)ncnc3n2C)cn1 [Compound 311, 1-(1-{8-[2-(dimethylamino)pyrimidin-5-yl]-9-methyl-9H-purin-6-yl}piperidin-4-yl)-1,3-dihydro-2H-benzimidazol-2-one]
250 to 500 nM | Cn1cc(-c2nc3c(N4CCN(S(=O)(=O)Cc5ccccc5)CC4)ncnc3n2C)cn1 [Compound 371, 9-methyl-8-(1-methyl-1H-pyrazol-4-yl)-6-{4-[(phenylmethyl)sulfonyl]piperazin-1-yl)-9H-purine]
50 to 250 nM | CC(NC(=O)c1nc2c(N3CCC4(CC3)C(=O)Nc3ccccc34)ncnc2n1C)C1CC1 (stereo not drawn) [Compound 84, N-(1-cyclopropylethyl)-9-methyl-6-(2-oxo-1,2-dihydro-1′H-spiro[indole-3,4′-piperidin]-1′-yl)-9H-purine-8-carboxamide]
50 to 250 nM | Cn1c(C(=O)NC2CCC(F)(F)CC2)nc2c(N3CCC4(CC3)C(=O)Nc3ccccc34)ncnc21 [Compound 105, N-(4,4-difluorocyclohexyl)-9-methyl-6-(2-oxo-1,2-dihydro-1′H-spiro[indole-3,4′-piperidin]-1′-yl)-9H-purine-8-carboxamide]
< 50 nM | CCn1cc(-c2nc3c(N4CCC(n5c(=O)[nH]c6c(F)cccc65)CC4)ncnc3n2C)cn1 [Compound 344, 1-{1-[8-(1-ethyl-1H-pyrazol-4-yl)-9-methyl-9H-purin-6-yl]piperidin-4-yl}-4-fluoro-1,3-dihydro-2H-benzimidazol-2-one]
500 to 1500 nM | Cn1c(C(=O)N2CCCC2)nc2c(N3CCC4(CC3)C(=O)Nc3ccccc34)ncnc21 [Compound 35, 1′-[9-methyl-8-(pyrrolidin-1-ylcarbonyl)-9H-purin-6-yl]spiro[indole-3,4′-piperidin]-2(1H)-one]
50 to 250 nM | Cn1cc(-c2nc3c(N4CCN(S(=O)(=O)c5ccccc5C(F)(F)F)CC4)ncnc3n2C)cn1 [Compound 378]
< 50 nM | Cn1c(-c2cnn(CC3CCC3)c2)nc2c(N3CCC(n4c(=O)[nH]c5ccccc54)CC3)ncnc21 [Compound 231]
< 50 nM | CCCn1cc(-c2nc3c(N4CCC(n5c(=O)[nH]c6ccccc65)CC4)ncnc3n2C)cn1 [Compound 147, 1-{1-[9-methyl-8-(1-propyl-1H-pyrazol-4-yl)-9H-purin-6-yl]piperidin-4-yl}-1,3-dihydro-2H-benzimidazol-2-one]
